Assay results taken from patent publication EP0923551B1, “4-AMINOETHOXY INDOLONE DERIVATIVES” (AMERICAN HOME PRODUCTS CORPORATION, priority 1996, dated 1998).

Target: dopamine autoreceptor (Rattus norvegicus, UniProt P61169)
Test: Affinity for the dopamine autoreceptor, 3H-quinpirole binding in homogenized rat striatal brain tissue
Conditions: for IC50: 3H-quinpirole, homogenized rat striatal brain tissue, read-out: IC50 (nM) D2 Quin.; for Ratio: ratio of IC50 D2 Spiper to IC50 D2 Quin. (LowAg/HighAg, predicts intrinsic activity)

dopamine autoreceptor, sequence (P61169 whole entry): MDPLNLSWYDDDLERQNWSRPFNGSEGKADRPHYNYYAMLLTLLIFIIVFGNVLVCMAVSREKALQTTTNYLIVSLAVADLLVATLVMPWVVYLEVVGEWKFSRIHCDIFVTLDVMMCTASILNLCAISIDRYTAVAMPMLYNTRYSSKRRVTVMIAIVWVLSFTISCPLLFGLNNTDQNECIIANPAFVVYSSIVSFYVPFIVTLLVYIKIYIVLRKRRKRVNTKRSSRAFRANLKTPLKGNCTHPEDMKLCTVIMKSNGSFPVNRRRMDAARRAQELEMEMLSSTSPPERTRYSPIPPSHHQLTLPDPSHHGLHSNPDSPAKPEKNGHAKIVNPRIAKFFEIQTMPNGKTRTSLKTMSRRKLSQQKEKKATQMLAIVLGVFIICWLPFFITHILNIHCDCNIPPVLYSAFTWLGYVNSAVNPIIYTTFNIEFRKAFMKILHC

Row | IC50 [nM] | Ratio | SMILES
1 | 1.52 | 424 | CN(CCOc1cccc2c1CC(=O)N2)Cc1ccccc1 [Example 25, 4-[2-(Benzyl-methyl-amino)-ethoxy]-1,3-dihydro-indol-2-one]
2 | 1.84 | – | O=C1Cc2c(OCCN3CCc4ccccc4C3)ccc(F)c2N1 [Example 22, 4-[2-(3,4-Dihydro-1H-isoquinolin-2-yl)-ethoxy]-7-fluoro-1,3-dihydro-indol-2-one]
3 | 1.1 | 52 | Cc1ccc(CNCCOc2ccc(Cl)c3c2CC(=O)N3)cc1 [Example 6]
4 | 0.55 | – | O=C1Cc2c(OCCN3Cc4ccccc4C3)ccc(Cl)c2N1 [Example 10, 7-Chloro-4-[2-(1,3-dihydro-isoindol-2-yl)-ethoxy]-1,3-dihydro-indol-2-one]
5 | 0.82 | 44 | O=C1Cc2c(OCCNCc3ccccc3)ccc(Cl)c2N1 [Example 14, 4-(2-Benzylamino-ethoxy)-7-chloro-1,3-dihydro-indol-2-one]
6 | 1.58 | 63 | O=C1Cc2c(OCCNCC3CCCCC3)ccc(F)c2N1 [Example 16, 4-[2-(Cyclohexylmethyl-amino)-ethoxy)-7-fluoro-1,3-dihydro-indol-2-one]
7 | 31.2 | 619 | Cc1cccc(CN(CCOc2cccc3c2CC(=O)N3)Cc2cccc(C)c2)c1 [Example 26, 4-{2-[Bis-(3-methyl-benzyl)-amino]-ethoxy}-1,3-dihydro-indol-2-one]
8 | 1.31 | 62 | O=C1Cc2c(OCCN3CCc4ccccc4C3)ccc(Cl)c2N1 [Example 9, 7-Chloro-4-[2-(3,4-dihydro-1H-isoquinolin-2-yl)-ethoxy]-1,3-dihydro-indol-2-one]
9 | 3.57 | – | O=C1Cc2c(OCCN3Cc4ccccc4C3)ccc(F)c2N1 [Example 19, 4-[2-(1,3-Dihydro-isoindol-2-yl)-ethoxy]-7-fluoro-1,3-dihydro-indol-2-one]
10 | 2.81 | 19 | O=C1Cc2c(OCCNCc3ccc(Cl)cc3)ccc(Cl)c2N1 [Example 5]
11 | 13.9 | 246 | NCCOc1cccc2c1CC(=O)N2 [Example 3, 4-(2-Amino-ethoxy)-1,3-dihydro-indol-2-one]
12 | 41.1 | – | O=C1Cc2c(OCCNCc3ccc(-c4ccccc4)cc3)ccc(Cl)c2N1 [Example 11, 4-{2-[(Biphenyl-4-ylmethyl)-amino]-ethoxy}-7-chloro-1,3-dihydro-indol-2-one]
13 | 1.89 | 76 | CCCCNCCOc1ccc(Cl)c2c1CC(=O)N2 [Example 8, 4-(2-Butylamino-ethoxy)-7-chloro-1,3-dihydro-indol-2-one]
14 | 0.91 | 76 | O=C1Cc2c(OCCNCc3ccccc3)ccc(F)c2N1 [Example 15, 4-(2-Benzylamino-ethoxy)-7-fluoro-1,3-dihydro-indol-2-one]
15 | 3.68 | 63 | CN(CCOc1ccc(Cl)c2c1CC(=O)N2)Cc1ccccc1 [Example 7, 4-[2-(N-Benzyl-N-methyl-amino)-ethoxy]-7-chloro-1,3-dihydro-indol-2-one]
16 | 2.54 | 69 | O=C1Cc2c(OCCNCc3ccc(F)cc3)ccc(Cl)c2N1 [Example 4]
17 | 0.41 | 354 | O=C1Cc2c(cccc2OCCNCc2ccccc2)N1 [Example 1, 4-(2-Benzylaminoethoxy)-1,3-dihydro-indol-2-one]
18 | 0.45 | 55 | O=C1Cc2c(cccc2OCCNCCCCc2ccccc2)N1 [Example 13]
19 | 4.31 | 213 | CNCCOc1cccc2c1CC(=O)N2 [Example 2, 4-(2-Methylamino-ethoxy)-1,3-dihydro-indol-2-one]
20 | 11.1 | – | O=C1Cc2c(OCCNCc3ccc(-c4ccccc4)cc3)ccc(F)c2N1 [Example 20, 4-{2-[(Biphenyl-4-ylmethyl)-amino]-ethoxy}-7-fluoro-1,3-dihydro-indol-2-one]
21 | 6.22 | 57 | CN(CCCC(=O)c1ccc(F)cc1)CCOc1cccc2c1CC(=O)N2 [Example 27, 4-(2-{[4-(4-Fluoro-phenyl)-4-oxo-butyl]-methyl-amino}-ethoxy)-1,3-dihydro-indol-2-one]
22 | 0.3 | – | O=C1Cc2c(OCCNCCCc3c[nH]c4ccccc34)ccc(F)c2N1 [Example 18, 4-{2-[3-(1H-Indol-yl)-propylamino]-ethoxy}-7-fluoro-1,3-dihydro-indol-2-one]
23 | 1.27 | – | O=C1Cc2c(OCCNCc3ccc4ccccc4c3)ccc(F)c2N1 [Example 21, 7-Fluoro-4-{2-[(napthalen-2-ylmethyl)-aminol]-ethoxy}-1,3-dihydro-indol-2-one]
